Test results reported in ChEMBL document CHEMBL1201862, “PubChem BioAssay data set” (2004).
Calls of active or inactive are those of the source.

Tests used:
[1] = IC50 of Artemis nuclease activity blockers – biochemical, fluorescence intensity, dose response (AID 720701); type: functional;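 further: Artemis endonuclease enzyme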
[2] = Luminescence Cell-Based Dose Response HTS to Identify Activators of Luciferase Translation or Activity in H4 […] Cells. [Related pubchem assays: 1829 (Project Summary), 1814 (Primary HTS)]; type: functional
[3] = melanocyte viability loss, MITF-dependent cells, cell-based, plate reader, dry powder, cytotoxicity control, dose response (AID 651920); type: functional
[4] = cytotoxicity in melanoma parental cells – cell-based, CellTiter-Glo, dry powder, set 6, MITF inhibitor project, dose response (AID 624429); type: functional; settings: SK-MEL-5
[5] = growth inhibition of SK-MEL-5 melanoma cells – cell-based, CellTiter-Glo luminescence, dry powder, set 8, orthogonal assay for MITF inhibitor project, dose response (AID 651586); type: functional
[6] = growth inhibition of MALME3 cells – cell-based, CellTiter-Glo luminescence, dry powder, set 5, orthogonal assay for MITF inhibitor project, dose response (AID 651584); type: functional; settings: MALME-3
[7] = viability loss in MITF-independent A375 cells – cell-based, CellTiter-Glo luminescence, dry powder, set 6, counter-screen for MITF inhibitor project, dose response (AID 624488); type: functional; settings: A-375
[8] = MITF Measured in Cell-Based System Using Plate Reader - 2084-01_Inhibitor_Dose_DryPowder_Activity_Set7.; type: functional
[9] = MITF Measured in Cell-Based System Using Plate Reader - 2084-01_Inhibitor_Dose_DryPowder_Activity_Set6.; type: functional
[10] = inhibitors of TRPM1-promoter reporter in SK-MEL-5 – cell-based, luciferase, dry powder, set 9, MITF inhibitor project, dose response (AID 651588); type: functional
[11] = viability loss in MITF-independent A375 cells – cell-based, CellTiter-Glo luminescence, dry powder, set 7, counter-screen for MITF inhibitor project, dose response (AID 624490); type: functional; settings: A-375
[12] = MITF Orthogonal Assay: SK-MEL-5 CTG Assay Measured in Cell-Based System Using Plate Reader - 2084-02_Inhibitor_Dose_DryPowder_Activity_Set5.; type: functional
[13] = cytotoxicity in MITF-independent A375 cells – cell-based, CellTiter-Glo luminescence, dry powder, set 4, counter-screen for MITF inhibitor project, dose response (AID 624364); type: functional; settings: A-375;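 further: A375 melanoma cells are MITF independent so this is a counter screen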
[14] = MITF Orthogonal Assay: MALME3 CTG Assay Measured in Cell-Based System Using Plate Reader - 2084-04_Inhibitor_Dose_DryPowder_Activity_Set6.; type: functional; settings: MALME-3
[15] = cytotoxicity in MITF-independent A375 cells – cell-based, CellTiter-Glo luminescence, dry powder, set 9, counter-screen for MITF modulator project, dose response (AID 651591); type: functional; settings: A-375
Fibrinogen beta chain [16] = biological target: T1, Fibrinogen beta chain (Homo sapiens, UniProt P02675); experiment: Fluorescence polarization-based biochemical high throughput dose response assay to identify inhibitors that disrupt the binding of a cyclic peptide (Tn7) to the fibrin proteolytic product D-Dimer and fragment E complex [DD(E )].
Fibrinogen beta chain [17] = biological target: T1, Fibrinogen beta chain; experiment: Fluorescence polarization-based biochemical high throughput dose response assay to identify inhibitors that disrupt the binding of a cyclic peptide (Tn6) to the fibrin proteolytic product D-Dimer and fragment E complex [DD(E )].
[18] = biological target: T2, Rac GTPase-activating protein 1 (Homo sapiens, UniProt Q9H0H5); experiment: blockers of MgcRacGAP-driven Rac1 GTP hydrolysis – biochemical, ADP Hunter fluorescence, primary and confirmatory, confirmation (AID 624330); type: functional
T2 sequence (Q9H0H5 whole entry): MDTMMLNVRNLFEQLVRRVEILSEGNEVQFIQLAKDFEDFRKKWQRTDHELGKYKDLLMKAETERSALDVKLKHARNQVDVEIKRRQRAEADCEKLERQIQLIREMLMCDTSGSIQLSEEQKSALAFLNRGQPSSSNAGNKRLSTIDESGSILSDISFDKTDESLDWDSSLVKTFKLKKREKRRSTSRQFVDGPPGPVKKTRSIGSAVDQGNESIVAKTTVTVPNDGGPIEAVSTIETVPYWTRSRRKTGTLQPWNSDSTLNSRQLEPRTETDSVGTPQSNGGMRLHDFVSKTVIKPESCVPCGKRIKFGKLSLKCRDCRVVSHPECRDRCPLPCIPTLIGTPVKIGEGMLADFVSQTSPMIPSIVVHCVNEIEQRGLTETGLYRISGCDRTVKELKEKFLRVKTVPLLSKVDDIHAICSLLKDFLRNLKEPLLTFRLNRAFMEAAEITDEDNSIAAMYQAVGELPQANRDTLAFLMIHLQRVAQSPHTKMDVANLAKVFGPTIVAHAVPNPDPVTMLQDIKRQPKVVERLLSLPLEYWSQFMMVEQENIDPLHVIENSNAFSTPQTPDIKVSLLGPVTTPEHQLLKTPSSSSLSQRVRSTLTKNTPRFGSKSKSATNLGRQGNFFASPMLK

Nonstructural protein 1 = Nonstructural protein 1 (Influenza A virus, UniProt Q194T2); type: functional, Influenza A virus (A/California/07/2009(H1N1))
[19] = viability loss in HeLa cells – cytotoxicity control for MgcRacGAP inhibitor project, dose response (AID 624300); type: functional
[20] = biological target: T3, DNA repair protein RAD52 homolog (Homo sapiens, UniProt P43351); type: functional, biochemical
T3 sequence (P43351 whole entry): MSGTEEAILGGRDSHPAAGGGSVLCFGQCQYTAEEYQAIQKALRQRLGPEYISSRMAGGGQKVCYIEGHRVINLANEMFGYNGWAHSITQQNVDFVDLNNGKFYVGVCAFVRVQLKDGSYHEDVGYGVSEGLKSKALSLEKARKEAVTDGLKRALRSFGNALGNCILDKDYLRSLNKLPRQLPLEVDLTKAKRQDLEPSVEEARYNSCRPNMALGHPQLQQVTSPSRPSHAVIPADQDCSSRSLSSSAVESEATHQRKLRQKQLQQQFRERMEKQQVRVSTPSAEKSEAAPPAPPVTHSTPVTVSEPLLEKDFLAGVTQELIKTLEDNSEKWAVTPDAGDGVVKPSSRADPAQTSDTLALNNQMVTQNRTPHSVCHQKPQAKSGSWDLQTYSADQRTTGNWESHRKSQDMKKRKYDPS

[21] = biological target: T4, Histone-lysine N-methyltransferase NSD2 (Homo sapiens, UniProt O96028); type: biochemical
T4 sequence (O96028 whole entry): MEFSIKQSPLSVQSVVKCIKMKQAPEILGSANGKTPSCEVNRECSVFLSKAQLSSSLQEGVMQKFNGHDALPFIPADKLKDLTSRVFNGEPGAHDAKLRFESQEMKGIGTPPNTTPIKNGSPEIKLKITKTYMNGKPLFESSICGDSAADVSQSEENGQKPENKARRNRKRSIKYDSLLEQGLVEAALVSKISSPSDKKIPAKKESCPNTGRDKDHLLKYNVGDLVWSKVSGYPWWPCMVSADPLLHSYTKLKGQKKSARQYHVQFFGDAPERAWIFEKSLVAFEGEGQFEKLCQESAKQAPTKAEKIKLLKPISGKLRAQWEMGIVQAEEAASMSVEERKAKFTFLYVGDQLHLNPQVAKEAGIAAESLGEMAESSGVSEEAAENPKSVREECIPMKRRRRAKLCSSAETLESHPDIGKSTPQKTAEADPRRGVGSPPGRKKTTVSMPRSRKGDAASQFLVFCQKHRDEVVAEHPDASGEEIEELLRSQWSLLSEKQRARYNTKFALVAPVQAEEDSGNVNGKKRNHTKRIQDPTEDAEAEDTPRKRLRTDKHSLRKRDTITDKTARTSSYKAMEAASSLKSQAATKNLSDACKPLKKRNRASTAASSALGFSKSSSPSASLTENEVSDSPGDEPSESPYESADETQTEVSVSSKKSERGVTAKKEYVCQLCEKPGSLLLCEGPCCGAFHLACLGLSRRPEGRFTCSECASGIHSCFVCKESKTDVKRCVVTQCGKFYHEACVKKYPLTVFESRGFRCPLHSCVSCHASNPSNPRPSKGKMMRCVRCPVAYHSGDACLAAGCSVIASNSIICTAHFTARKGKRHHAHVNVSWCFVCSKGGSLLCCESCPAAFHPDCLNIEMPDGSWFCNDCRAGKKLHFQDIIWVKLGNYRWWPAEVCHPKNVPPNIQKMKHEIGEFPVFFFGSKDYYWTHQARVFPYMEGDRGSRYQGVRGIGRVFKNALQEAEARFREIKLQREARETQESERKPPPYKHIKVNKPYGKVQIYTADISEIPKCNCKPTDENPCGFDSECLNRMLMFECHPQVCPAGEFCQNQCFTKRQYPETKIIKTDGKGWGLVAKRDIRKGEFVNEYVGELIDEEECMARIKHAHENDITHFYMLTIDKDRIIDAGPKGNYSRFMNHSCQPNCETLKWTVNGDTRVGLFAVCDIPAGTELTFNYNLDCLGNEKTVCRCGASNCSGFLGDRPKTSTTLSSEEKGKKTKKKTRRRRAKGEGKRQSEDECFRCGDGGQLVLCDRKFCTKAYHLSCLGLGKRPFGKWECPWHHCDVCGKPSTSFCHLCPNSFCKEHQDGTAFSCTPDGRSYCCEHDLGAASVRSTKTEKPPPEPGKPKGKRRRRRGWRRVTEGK

[22] = biological target: Matrix metalloproteinase-14 (Homo sapiens, UniProt P50281); experiment: Dose Response confirmation of uHTS hits for a small molecule inhibitors of MT1-MMP activation in a fluorescence assay set 1.; type: functional
[23] = Trypanosoma cruzi replication inhibitors in host cells – cell-based, plate reader, dry powder samples, dose response (AID 651845); type: functional
[24] = T. cruzi growth inhibition in host cells, dose response, cell-based, plate reader, dry powder, set 2 (AID 652275); type: functional
[25] = anti-trypanosomal activity in BESM host cells – imaging, CA-I/72 strain, bovine embryo skeletal muscle, dry powder, dose response (AID 651885); type: functional, cell-based

T1 sequence (P02675 whole entry, the tested form may be a part): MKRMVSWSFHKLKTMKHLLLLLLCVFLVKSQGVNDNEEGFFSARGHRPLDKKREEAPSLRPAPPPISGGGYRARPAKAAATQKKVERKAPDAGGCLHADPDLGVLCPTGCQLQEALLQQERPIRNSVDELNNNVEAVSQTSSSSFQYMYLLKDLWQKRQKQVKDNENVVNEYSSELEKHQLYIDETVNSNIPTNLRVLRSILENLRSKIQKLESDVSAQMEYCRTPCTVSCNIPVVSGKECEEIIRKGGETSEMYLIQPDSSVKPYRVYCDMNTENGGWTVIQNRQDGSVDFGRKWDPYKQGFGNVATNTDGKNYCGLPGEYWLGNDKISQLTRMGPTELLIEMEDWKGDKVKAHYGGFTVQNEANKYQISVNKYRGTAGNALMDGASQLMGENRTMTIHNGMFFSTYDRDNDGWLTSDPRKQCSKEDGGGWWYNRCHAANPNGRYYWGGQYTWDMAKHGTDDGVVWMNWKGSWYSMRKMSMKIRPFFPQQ
Chain of Nonstructural protein 1 (Q194T2 whole entry): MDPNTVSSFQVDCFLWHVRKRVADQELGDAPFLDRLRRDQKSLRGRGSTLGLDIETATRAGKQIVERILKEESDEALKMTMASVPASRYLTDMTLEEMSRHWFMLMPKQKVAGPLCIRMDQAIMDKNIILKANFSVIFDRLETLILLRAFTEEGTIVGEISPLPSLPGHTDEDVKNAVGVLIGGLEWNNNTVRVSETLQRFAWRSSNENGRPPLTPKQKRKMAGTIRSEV

## Nc1ccc2[nH]c(-c3ccccn3)nc2c1
[1]
  IC50: 16.7 µM (active)
[2]
  EC50: 24.6 µM (active)

## COC1=C(NS(=O)(=O)c2cccs2)C(=O)c2ccccc2C1=O
[3]
  AC50: 64.3 µM (active)
[4]
  AC50: 20.2 µM (active)
[5]
  AC50: 21 µM (active)
[6]
  AC50: 38 µM (active)
[7]
  AC50: 64.7 µM (active)
[8]
  AC50: 12.3 µM (active)
[9]
  AC50: 13.2 µM (active)
[10]
  AC50: 26.3 µM (active)
[11]
  AC50: > 70 µM (inactive)
[12]
  AC50: 19.1 µM (active)
[13]
  AC50: > 70 µM (inactive)
[14]
  AC50: 38 µM (active)
[15]
  AC50: > 70 µM (inactive)

## O=C1c2cccc(NCCCNCCO)c2C(=O)c2cccc(NCCCNCCO)c21
Fibrinogen beta chain [16]
  IC50: > 83.3 µM (inactive)
Fibrinogen beta chain [17]
  IC50: 9.1 µM (active)
[18]
  IC50: 27.8 µM (active)
Nonstructural protein 1
  IC50: 10.1 µM (active)
[19]
  CC50: 25.6 µM (active)
[20]
  AC50: < 0.15 µM (active)
[21]
  AC50: 3.53 µM (active)
[22]
  IC50: 38 µM (inactive)

## CC(C)N1C[C@H](C)[C@@H](CN(C)Cc2ccccc2)Oc2c(NC(=O)c3ccncc3)cccc2C1=O
[23]
  AC50: 0.00035 µM (active)
[24]
  AC50: 0.00035 µM (active)
[25]
  IC50: 0.0026 µM (active)
